According to US20110224226A1, “COMPOSITIONS AND METHODS FOR INCREASING BLOOD PLATELET LEVELS IN HUMANS” (AKARX, Inc., priority 2006, published 2011):

Key:
[1] = test system: human hematopoietic progenitor cells; assay: differentiation of hematopoietic progenitor cells other than megakaryocytic lineage; format: cell-based
platelet function = platelet function (platelet aggregation and activation); format: cell-based, human
[2] = in-vitro plasma protein binding, monkeys; format: in vitro ADME; conditions: monkey, 0.05 to 50 μg/mL
Method: (§1) The in-vitro plasma protein binding of the drug of Formula I was independent of concentration over the concentration range of 0.05 to 50 μg/mL and was 87.2-89.1% in mice; 87.6-89.2% in rats; 88.3-92.0% in rabbits; […] in dogs; 97.0-97.6% in monkeys; and 96.3-96.6% in humans.

[3] = in-vitro plasma protein binding, humans; format: in vitro ADME; conditions: human, 0.05 to 50 μg/mL
Method: as §1

liver microsomal enzymes = assay: metabolism by mouse liver microsomal enzymes; format: in vitro ADME
CYP1A2 = target: T1, CYP1A2 (Homo sapiens, UniProt P05177); assay: inhibition of human liver cytochrome P450 CYP1A2; format: in vitro ADME; conditions: human liver cytochrome P450 isoenzyme
T1 sequence (P05177 1-516): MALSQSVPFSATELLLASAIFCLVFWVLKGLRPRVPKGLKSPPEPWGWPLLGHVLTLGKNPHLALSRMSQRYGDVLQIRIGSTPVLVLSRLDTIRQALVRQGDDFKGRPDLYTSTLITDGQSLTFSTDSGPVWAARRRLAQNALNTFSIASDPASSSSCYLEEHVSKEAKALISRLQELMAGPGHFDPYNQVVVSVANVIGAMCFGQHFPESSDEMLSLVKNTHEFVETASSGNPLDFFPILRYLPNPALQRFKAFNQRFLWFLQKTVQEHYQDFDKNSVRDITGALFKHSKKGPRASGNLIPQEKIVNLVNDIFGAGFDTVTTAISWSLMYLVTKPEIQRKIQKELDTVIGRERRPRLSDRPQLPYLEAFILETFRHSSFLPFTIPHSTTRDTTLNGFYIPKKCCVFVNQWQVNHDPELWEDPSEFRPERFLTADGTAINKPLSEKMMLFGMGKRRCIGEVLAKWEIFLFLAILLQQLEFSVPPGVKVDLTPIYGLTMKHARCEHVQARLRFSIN

[4] = 4-week repeat dose toxicity in cynomolgus monkey; format: in vivo
platelet count = assay: Example 1 single dose study: pharmacodynamics (platelet count); format: in vivo, human
Method: A single-center, randomized, double-blind, dose-rising study to determine the safety, pharmacokinetics, and pharmacodynamics of single doses of 1-(3-chloro-5-{[4-(4-chlorothiophen-2-yl)-5-(4-cyclohexylpiperazin-1-yl)thiazol-2-yl]carbamoyl} pyridin-2-yl)piperadine-4-carboxylic acid (Formula I) in normal healthy volunteers was performed. The starting dose of the drug of Formula I was 1 mg (expressed as free base). Successive dose cohorts received 3, 10, 20, 50, 75 and 100 mg. The drug substance in the form of the monomaleate salt was suspended in Ora-Plus® (purified water, microcrystalline cellulose, sodium carboxymethylcellulose, xanthan gum, citric acid, sodium phosphate, simethicone, potassium sorbate and methylparaben), a commercially available oral suspending vehicle manufactured by Paddock Laboratories, Inc. Minneapolis, Minn. The Ora-Plus® was diluted with purified water, USP in a 1:1 suspension before being used to suspend the drug substance powder in preparation for oral administration. Prior to administration, 30 mL of the Ora-Plus®/water vehicle was added to each bottle, shaken and then consumed by the subject for each of the 3, 10, 50 and 75 mg dose cohorts. This was followed by an additional 30 mL of vehicle that was added to the bottle as a wash solution, shaken and then consumed by the subject. For the 20 mg and 100 mg dose cohorts, 60 mL of the Ora-Plus®/water vehicle was added to two (2) separate bottles containing the appropriate dose of drug (30 mL each bottle), shaken then consumed by the subjects. This was followed by an additional 60 mL of vehicle that was added as 30 ml to each bottle as a wash solution, shaken and then consumed by the subject.
A minimum of 9 subjects (male and female healthy volunteers) were enrolled in each cohort. The active group within each cohort included male and female volunteers. Three subjects per cohort received placebo. Each successive dose cohort was treated no sooner than 10 days after the previous group had received the study drug. […]

In the case of `O=C(Nc1nc(-c2cc(Cl)cs2)c(N2CCN(C3CCCCC3)CC2)s1)c1cnc(N2CCC(C(=O)O)CC2)c(Cl)c1` [Formula I, 1-(3-chloro-5-{[4-(4-chlorothiophen-2-yl)-5-(4-cyclohexylpiperazin-1-yl)thiazol-2-yl]carbamoyl}pyridin-2-yl)piperadine-4-carboxylic acid], the “differentiation of human hematopoietic progenitor cells other than those of megakaryocytic lineage” value [1] is reported as “did not promote the differentiation”, the “platelet function as measured by platelet aggregation and activation” value (platelet function) is reported as “does not appear to effect platelet function” and the fraction unbound [2] is reported as 0.024 to 0.03. The fraction unbound [3] was 0.034 to 0.037, the “metabolism by liver microsomal enzymes” value (liver microsomal enzymes) was “does not appear to be metabolized” and the “inhibition of CYP1A2” value (CYP1A2) was “did not inhibit”. The “changes in the gastric mucosa” value ([4]; cynomolgus monkey, repeat dosing 4 weeks, 3, 10, 100, 1000 mg/kg/day) was “necrosis of the surface epithelium and atrophy of the fundic glands and edema and inflammatory infiltrates in the lamia propria of the fundus”, the “muscle degeneration/necrosis in femoral, lower thigh or multifides muscles” value ([4]; cynomolgus monkey, repeat dosing 4 weeks, lesions partly present before dosing and in a control) was “one or more monkeys in all dose groups” and the “CK and aldolase levels” value ([4]; cynomolgus monkey, elevated levels also present prior to the first dose) was “Elevated levels of CK and aldolase”. For the same compound, the “reversibility of gastric mucosa changes” value ([4]; high dose monkeys, on drug withdrawal) was “not entirely”, the “dose at which the PD limit (5 subjects with >50% increase in platelet count) was reached” value (platelet count; single dose) was 100 mg and the “dose-concentration-response relationship for changes in platelet count” value (platelet count; single dose, increasing drug concentrations and exposure) was “linear increases in platelet counts over baseline”. For the same compound, the “single dose after which statistically significant increases in platelet counts were evident” value (platelet count; single oral dose, healthy volunteers) was at least 10 mg.
